Data reported in US8841268B2, “Method and kit for detection of cancer, and therapeutic agent for cancer” (Sapporo Medical University, priority 2008, dated 2014).
Where two headings read alike, the source gives them in different places.

Experiments:
Type in all cases: cell-based, human
[1] = system: p53-knockout HCT116 cell; assay: miR-34b/c expression in p53-knockout HCT116 cell treated with DAC and/or ADR; settings: HCT116 cell in which p53 gene has been knocked out; DAC 2 μM, 72 hours; ADR 0.5 μg/ml, 24 hours; FIG. 5B
[2] = system: HCT116 cell; assay: miR-34b/c expression in HCT116 cell treated with DAC and/or ADR; settings: DAC 2 μM, 72 hours, ADR 0.5 μg/ml, 24 hours, FIG. 5A
Description: U6 snRNA was used as an internal control.

[3] = system: p53; settings: p53-knockout HCT116 cell (p53KO); DAC 2 μM, 72 hours; ADR 0.5 μg/ml, 24 hours; FIG. 5C
[4] = system: p53; settings: HCT116 cell (WT); DAC 2 μM, 72 hours; ADR 0.5 μg/ml, 24 hours; FIG. 5C
[5] = system: p21; assay: Western-blotting of p21 expression in HCT116 cell (WT); settings: DAC 2 μM, 72 hours, ADR 0.5 μg/ml, 24 hours, FIG. 5C
Description: The expression of β-actin was confirmed as control, and the expression of p21 gene which is known as a representative target of p53 was similarly confirmed.

[6] = system: p21; settings: p53-knockout HCT116 cell (p53KO); DAC 2 μM, 72 hours; ADR 0.5 μg/ml, 24 hours; FIG. 5C
[7] = system: 9 colorectal cancer cell lines (CaCO2, Colo320, DLD1, HCT116, HT29, LoVo, RKO, SW48 and SW480); assay: BTG4 expression by RT-PCR in colorectal cancer cell lines treated with DAC; settings: DAC 2 μM, 72 hours, FIG. 14A
[8] = system: CDK4; assay: Western-blot analysis of CDK4 protein in HCT116 cell; settings: anti-CDK4 antibody, vs control miRNA / mock, FIG. 13C
Description: (§1) Furthermore, for foregoing genes, changes in protein level were verified by western-blot analysis using an anti-MET antibody (MET), anti-CDK4 antibody (CDK4), anti-SFRS2 antibody (SFRS2), and anti-actin antibody as control (actin), as shown in FIG. 13C. […] The result above also indicates a more marked decrease in protein level than in RNA level.

[9] = system: CDK4 (cyclin-dependent kinase 4) gene; assay: Real-time RT-PCR (TaqMan Gene Expression Assay) of CDK4 gene in HCT116 cells; settings: miRNA by electroporation, RNA after 48 hours, vs control miRNA, DAC 2 μM, 72 hours vs mock, FIG. 13B
[10] = system: (v-myb myeloblastosis viral oncogene homolog) gene; settings: HCT116 cells, DAC 2 μM, 72 hours vs mock, FIG. 13B
[11] = system: HCT116 cell; assay: Microarray analysis of gene expression in HCT116 cell; settings: miRNA by electroporation, RNA after 48 hours, vs control miRNA, DAC 2 μM, 72 hours vs mock, FIG. 13A
Protocol: Firstly, in order to search for a gene whose expression is decreased by miR-34b/c expression, control miRNA (control miRNA (Ambion)), miR-34b (miR-34b precursor (Ambion)) and miR-34c (miR-34c precursor (Ambion)) were introduced into a HCT116 cell by electroporation, and after 48 hours RNA was extracted and subjected to microarray analysis.

[12] = system: MET; assay: Western-blot analysis of MET protein in HCT116 cell; settings: anti-MET antibody, vs control miRNA / mock, FIG. 13C
Description: as §1

[13] = system: 9 colorectal cancer cell lines (CaCO2, Colo320, DLD1, HCT116, HT29, LoVo, RKO, SW48 and SW480); assay: Expression analysis of miR-34b and miR-34c in colorectal cancer cell lines with DAC treatment; settings: all 9 colorectal cancer cell lines
Description: DKO2 cell was used as a control, and U6 snRNA was used as an internal control.
The expression level of miRNA was converted to the ratio of the expression level of each miRNA to that of U6 snRNA (i.e., the expression level of each miRNA/the expression level of U6 snRNA) and analyzed.

[14] = system: CCNE2 (Cyclin E2) gene; assay: Real-time RT-PCR (TaqMan Gene Expression Assay) of CCNE2 gene in HCT116 cells; settings: miRNA by electroporation, RNA after 48 hours, vs control miRNA, DAC 2 μM, 72 hours vs mock, FIG. 13B
[15] = system: SFRS2; assay: Western-blot analysis of SFRS2 protein in HCT116 cell; settings: anti-SFRS2 antibody, vs control miRNA / mock, FIG. 13C
Description: as §1

[16] = system: SFRS2 (splicing factor, arginine/serine-rich 2) gene; assay: Real-time RT-PCR (TaqMan Gene Expression Assay) of SFRS2 gene in HCT116 cells; settings: miRNA by electroporation, RNA after 48 hours, vs control miRNA, DAC 2 μM, 72 hours vs mock, FIG. 13B
[17] = system: HCT116 cell; assay: Expression analysis of miRNAs (TaqMan miRNA Assay, real-time PCR) in HCT116 cell; settings: DAC 2 μM, 72 hours
[18] = system: MET (hepatocyte growth factor receptor) gene; assay: Real-time RT-PCR (TaqMan Gene Expression Assay) of MET gene in HCT116 cells; settings: miRNA by electroporation, RNA after 48 hours, vs control miRNA, DAC 2 μM, 72 hours vs mock, FIG. 13B
[19] = miRNA by electroporation, RNA after 48 hours, vs control miRNA

Molecule	miR-34b/c expression [2]	mRNA expression level of CDK4 gene [9]	gene expression patterns (microarray) [11]	mRNA expression level of CCNE2 gene [14]	mRNA expression level of SFRS2 gene [16]	mRNA expression level of MET gene [18]	mRNA expression level of MTB gene [10, 19]	further results
COc1cccc2c1C(=O)c1c(O)c3c(c(O)c1C2=O)C[C@@](O)(C(=O)CO)C[C@@H]3O[C@H]1C[C@H](N)[C@H](O)[C@H](C)O1 [ADR, adriamycin]	induction of miR-34b/c expression was observed	–	–	–	–	–	–	miR-34b/c expression [1]: not at all; p53 expression (protein level) [3]: neither p53 nor p21 was changed at all; p53 expression (protein level) [4]: induced by ADR treatment; expression of p21 gene, a p53 target [5]: also induced in similar pattern to that of p53; p21 expression [6]: neither p53 nor p21 was changed at all
Nc1ncn([C@H]2C[C@H](O)[C@@H](CO)O2)c(=O)n1 [DAC, 5-aza-2′-deoxycytidine]	induction of miR-34b/c expression was observed	decreased	also decreased by DAC treatment	decreased	decreased	decreased	–	mRNA expression of BTG4 gene [7]: markedly increased (restored); expression level of CDK4 protein [8]: decreased; mRNA expression level of MTB gene ([10]; […]): decreased; expression level of MET protein [12]: decreased; expression of miR-34b ([13]; FIG. 4A): induces the expression; expression of miR-34c ([13]; FIG. 4B): induces the expression; expression level of SFRS2 protein [15]: decreased; expression of miRNAs (expression level of each miRNA/the expression level of U6 snRNA) ([17]; 157 miRNAs compared, FIG. 2): induced the expression of 37 miRNAs; expression levels of miRNA34b and miR-34c ([17]; FIG. 3A): restores their expression
miR-34b: miR-34b precursor (Ambion); matured type sequence UAGGCAGUGUCAUUAGCUGAUUG (SEQ ID NO: 2) (precursor form, further chemistry not given here)	–	decreased	a group of genes whose expression was decreased	decreased	decreased	decreased	decreased	–
miR-34c: miR-34c precursor (Ambion); matured type sequence AGGCAGUGUAGUUAGCUGAUUGC (SEQ ID NO: 4) (precursor form, further chemistry not given here)	–	decreased	a group of genes whose expression was decreased	decreased	decreased	decreased	decreased	–
